# Tested on: G-401 tumor spheroids, viability % test/control
# Test: Anticancer human tumor G-401 cell line growth inhibition;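 also: spheroids exposed to compound for 7 days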;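 as to viability, T/C: 100% = DMSO vehicle-treated spheroids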
# Conditions: spheroids with HUVEC and MSC; for IC50: curve of first compound; for viability, T/C: stronger effect = lower value
# How it was run: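 Complex spheroids of malignant cells with endothelial cells and mesenchymal stem cells; agents alone or combined, from near clinical Cmax (or 10 microM if unknown) down in half-log steps, 0.25% DMSO final.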
# [1] = second compound 0.003 µM, first compound 0.0316 µM
# [2] = second compound 0.003 µM, first compound 0.1 µM
# [3] = second compound 0.003 µM, first compound 0.316 µM
# [4] = second compound 0.003 µM, first compound 1 µM
# [5] = second compound 0.003 µM, first compound 3.16 µM
# [6] = second compound 0.003 µM, first compound 10 µM
# [7] = second compound 0.00949 µM, first compound 0.0316 µM
# [8] = second compound 0.00949 µM, first compound 0.1 µM
# [9] = second compound 0.00949 µM, first compound 0.316 µM
# [10] = second compound 0.00949 µM, first compound 1 µM
# [11] = second compound 0.00949 µM, first compound 3.16 µM
# [12] = second compound 0.00949 µM, first compound 10 µM
# [13] = second compound 0.03 µM, first compound 0.0316 µM
# [14] = second compound 0.03 µM, first compound 0.1 µM
# [15] = second compound 0.03 µM, first compound 0.316 µM
# [16] = second compound 0.03 µM, first compound 1 µM
# [17] = second compound 0.03 µM, first compound 3.16 µM
# [18] = second compound 0.03 µM, first compound 10 µM
# [19] = second compound 0.0949 µM, first compound 0.0316 µM
# [20] = second compound 0.0949 µM, first compound 0.1 µM
# [21] = second compound 0.0949 µM, first compound 0.316 µM
# [22] = second compound 0.0949 µM, first compound 1 µM
# [23] = second compound 0.0949 µM, first compound 3.16 µM
# [24] = second compound 0.0949 µM, first compound 10 µM
# [25] = second compound 0.3 µM, first compound 0.0316 µM
# [26] = second compound 0.3 µM, first compound 0.1 µM
# [27] = second compound 0.3 µM, first compound 0.316 µM
# [28] = second compound 0.3 µM, first compound 1 µM
# [29] = second compound 0.3 µM, first compound 3.16 µM
# [30] = second compound 0.3 µM, first compound 10 µM
smiles,measurement,setting,value
COc1ccc([C@@H](O)c2cc(-c3ncnc4cc(N5CCOCC5)ccc34)c(F)cc2Cl)nn1 + CC[C@@]1(O)C(=O)OCc2c1cc1n(c2=O)Cc2cc3c(CN(C)C)c(O)ccc3nc2-1,IC50,second compound 0.003 µM,864 nM
same,IC50,second compound 0.00949 µM,< 31.6 nM
same,IC50,second compound 0.03 µM,< 31.6 nM
same,IC50,second compound 0.0949 µM,< 31.6 nM
same,IC50,second compound 0.3 µM,< 31.6 nM
same,"viability, T/C",[1],84.4%
same,"viability, T/C",[2],84.2%
same,"viability, T/C",[3],66.6%
same,"viability, T/C",[4],48.3%
same,"viability, T/C",[5],23.6%
same,"viability, T/C",[6],9.59%
same,"viability, T/C",[7],43.5%
same,"viability, T/C",[8],41.3%
same,"viability, T/C",[9],40.5%
same,"viability, T/C",[10],26.8%
same,"viability, T/C",[11],11.7%
same,"viability, T/C",[12],5.69%
same,"viability, T/C",[13],16.9%
same,"viability, T/C",[14],15.9%
same,"viability, T/C",[15],11.2%
same,"viability, T/C",[16],8.51%
same,"viability, T/C",[17],5.48%
same,"viability, T/C",[18],3.09%
same,"viability, T/C",[19],7.39%
same,"viability, T/C",[20],7.68%
same,"viability, T/C",[21],6.35%
same,"viability, T/C",[22],5.25%
same,"viability, T/C",[23],3.31%
same,"viability, T/C",[24],1.7%
same,"viability, T/C",[25],4.49%
same,"viability, T/C",[26],4.63%
same,"viability, T/C",[27],3.66%
same,"viability, T/C",[28],2.59%
same,"viability, T/C",[29],0.94%
same,"viability, T/C",[30],0.33%
COc1cc(C)[nH]c(=O)c1CN1CCc2c(Cl)cc(C(OC)C3COC3)c(Cl)c2C1=O (stereo not given) + Cn1nnc2c(C(N)=O)ncn2c1=O,IC50,second compound 1 µM,160 nM
same,IC50,second compound 3.16 µM,201 nM
same,IC50,second compound 10 µM,145 nM
same,IC50,second compound 31.6 µM,208 nM
same,IC50,second compound 100 µM,203 nM
same,"viability, T/C","second compound 1 µM, first compound 0.0316 µM",88.4%
same,"viability, T/C","second compound 1 µM, first compound 0.1 µM",57.9%
same,"viability, T/C","second compound 1 µM, first compound 0.316 µM",38.3%
same,"viability, T/C","second compound 1 µM, first compound 1 µM",31.7%
same,"viability, T/C","second compound 1 µM, first compound 3.16 µM",21.3%
same,"viability, T/C","second compound 1 µM, first compound 10 µM",27.6%
same,"viability, T/C","second compound 3.16 µM, first compound 0.0316 µM",86.3%
same,"viability, T/C","second compound 3.16 µM, first compound 0.1 µM",63%
same,"viability, T/C","second compound 3.16 µM, first compound 0.316 µM",41.2%
same,"viability, T/C","second compound 3.16 µM, first compound 1 µM",30.4%
same,"viability, T/C","second compound 3.16 µM, first compound 3.16 µM",24.3%
same,"viability, T/C","second compound 3.16 µM, first compound 10 µM",23.5%
same,"viability, T/C","second compound 10 µM, first compound 0.0316 µM",81%
same,"viability, T/C","second compound 10 µM, first compound 0.1 µM",59.9%
same,"viability, T/C","second compound 10 µM, first compound 0.316 µM",25.5%
same,"viability, T/C","second compound 10 µM, first compound 1 µM",33.8%
same,"viability, T/C","second compound 10 µM, first compound 3.16 µM",30.4%
same,"viability, T/C","second compound 10 µM, first compound 10 µM",27.2%
same,"viability, T/C","second compound 31.6 µM, first compound 0.0316 µM",81.8%
same,"viability, T/C","second compound 31.6 µM, first compound 0.1 µM",60.8%
same,"viability, T/C","second compound 31.6 µM, first compound 0.316 µM",43.9%
same,"viability, T/C","second compound 31.6 µM, first compound 1 µM",32.2%
same,"viability, T/C","second compound 31.6 µM, first compound 3.16 µM",27.9%
same,"viability, T/C","second compound 31.6 µM, first compound 10 µM",23.4%
same,"viability, T/C","second compound 100 µM, first compound 0.0316 µM",88.3%
same,"viability, T/C","second compound 100 µM, first compound 0.1 µM",62%
same,"viability, T/C","second compound 100 µM, first compound 0.316 µM",43.3%
same,"viability, T/C","second compound 100 µM, first compound 1 µM",29.6%
same,"viability, T/C","second compound 100 µM, first compound 3.16 µM",30.8%
same,"viability, T/C","second compound 100 µM, first compound 10 µM",24.7%
Cc1cc(C)c(CNC(=O)c2cc(-c3ccc(CN4CCOCC4)cc3)cc3c2cnn3C2CCCC2)c(=O)[nH]1 + CC[C@@]1(O)C(=O)OCc2c1cc1n(c2=O)Cc2cc3c(CN(C)C)c(O)ccc3nc2-1,IC50,second compound 0.003 µM,4210 nM
same,IC50,second compound 0.00949 µM,< 31.6 nM
same,IC50,second compound 0.03 µM,< 31.6 nM
same,IC50,second compound 0.0949 µM,< 31.6 nM
same,IC50,second compound 0.3 µM,< 31.6 nM
same,"viability, T/C",[1],79.7%
same,"viability, T/C",[2],81.4%
same,"viability, T/C",[3],75.1%
same,"viability, T/C",[4],75.1%
same,"viability, T/C",[5],58.2%
same,"viability, T/C",[6],24.3%
same,"viability, T/C",[7],47.1%
same,"viability, T/C",[8],39.4%
same,"viability, T/C",[9],32.9%
same,"viability, T/C",[10],33.2%
same,"viability, T/C",[11],22.1%
same,"viability, T/C",[12],14.2%
same,"viability, T/C",[13],13.4%
same,"viability, T/C",[14],12.7%
same,"viability, T/C",[15],11%
same,"viability, T/C",[16],9.58%
same,"viability, T/C",[17],7.81%
same,"viability, T/C",[18],7.38%
same,"viability, T/C",[19],7.91%
same,"viability, T/C",[20],8.43%
same,"viability, T/C",[21],7.6%
same,"viability, T/C",[22],6.51%
same,"viability, T/C",[23],5.89%
same,"viability, T/C",[24],5.15%
same,"viability, T/C",[25],5.19%
same,"viability, T/C",[26],5.25%
same,"viability, T/C",[27],4.23%
same,"viability, T/C",[28],4.83%
same,"viability, T/C",[29],4.3%
same,"viability, T/C",[30],4.73%

# — PubChem BioAssay AID1845203 (Molecular Pharmacology Branch, DTP, NCI, 2023)
